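1) Cells in 96-well plates. 2) Compound, 48 h, 5 concentrations. 3) Linear interpolation between surrounding doses. 4) Unreached endpoint = highest concentration. TGI: concentration producing complete growth inhibition.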 Where a SMILES comes first, the peptide text is derived from it. [ ]: non-standard residue; d: D form. The star is where a group is joined. Cbz = O=C(OCc1ccccc1)*; Boc = CC(C)(C)OC(=O)*; Aib = CC(C)(N)C(=O)O; OBn = c1ccc(CO*)cc1; OtBu = CC(C)(C)O*; βAla = NCCC(=O)O
Legend:
Assay in all cases: DTP human tumour cell line panel, 48 h
[1] = system: ACHN renal
[2] = system: MDA-MB-231 breast
[3] = system: OVCAR-3 ovarian
[4] = system: MALME-3M melanoma
[5] = system: MDA-N
[6] = system: HCT-15 colon
[7] = system: SK-OV-3 ovarian
[8] = system: A549 NSCLC
[9] = system: U251 CNS
[10] = system: 786-0 renal
[11] = system: T-47D breast

## Cc1ccc(S(=O)(=O)N2CCN(CCN(C)CCN3CCN(S(=O)(=O)c4ccc(C)cc4)CC3)CC2)cc1
[1]
  TGI: 32.7 µM
[2]
  TGI: 49 µM
[3]
  TGI: 31.1 µM
[4]
  TGI: 33.7 µM
[5]
  TGI: 39.7 µM
[6]
  TGI: 31.9 µM
[7]
  TGI: 33.3 µM
[8]
  TGI: 76.1 µM
[9]
  TGI: 31.6 µM
[10]
  TGI: 39.3 µM
[11]
  TGI: 48 µM

## CCOC(=O)c1c(N2CCOCC2)[nH]c(=O)c(C(c2ccc(OC)cc2)c2c(O)c(C(=O)OCC)c(N3CCOCC3)[nH]c2=O)c1O
[1]
  TGI: > 100 µM
[2]
  TGI: > 100 µM
[3]
  TGI: > 100 µM
[4]
  TGI: > 100 µM
[5]
  TGI: > 100 µM
[6]
  TGI: > 100 µM
[7]
  TGI: > 100 µM
[8]
  TGI: > 100 µM
[9]
  TGI: > 100 µM
[10]
  TGI: > 100 µM
[11]
  TGI: > 100 µM

## COc1cc(/C=C2/SC(c3ccccc3)N(c3cccc([N+](=O)[O-])c3)C2=O)cc(OC)c1OC (stereo unspecified)
[1]
  TGI: > 100 µM
[2]
  TGI: > 100 µM
[3]
  TGI: > 100 µM
[4]
  TGI: > 100 µM
[5]
  TGI: 78.6 µM
[6]
  TGI: > 100 µM
[7]
  TGI: > 100 µM
[8]
  TGI: > 100 µM
[9]
  TGI: > 100 µM
[10]
  TGI: > 100 µM
[11]
  TGI: > 100 µM

## CC(C)(C)OC(=O)CC(NC(=O)OC(C)(C)C)C(=O)NC(CCCCNC(=O)OCc1ccccc1)C(=O)NC(C)(C)C(=O)NCCC(=O)OCc1ccccc1 (stereo unspecified) (Boc-D(OtBu)K(Cbz)[Aib][βAla]-OBn; configuration not given here)
[1]
  TGI: > 100 µM
[2]
  TGI: > 100 µM
[3]
  TGI: > 100 µM
[4]
  TGI: > 100 µM
[5]
  TGI: > 100 µM
[6]
  TGI: > 100 µM
[7]
  TGI: > 100 µM
[8]
  TGI: > 100 µM
[9]
  TGI: > 100 µM
[10]
  TGI: > 100 µM
[11]
  TGI: > 100 µM

## COc1cc2ccnc3c2c(c1O)N(C)C=C3
[1]
  TGI: 27.6 µM
[2]
  TGI: > 71.1 µM
[3]
  TGI: 17.8 µM
[4]
  TGI: 21.7 µM
[5]
  TGI: > 38.4 µM
[6]
  TGI: > 64.2 µM
[7]
  TGI: 27.4 µM
[8]
  TGI: 50.3 µM
[9]
  TGI: > 100 µM
[10]
  TGI: 21.8 µM
[11]
  TGI: > 24.7 µM

## C/C=C/[C@H]1O[C@@](OC)([C@@H](C)[C@H](O)[C@H](C)[C@H]2OC(=O)/C(OC)=C/C(C)=C/[C@@H](C)[C@@H](O)[C@@H](C)[C@@H](O)[C@H](C)C/C(C)=C/C=C/[C@@H]2OC)CC(OC2CC(O)C(OC(N)=O)C(C)O2)[C@@H]1C (stereo partly specified)
[1]
  TGI: 8.27 µM
[2]
  TGI: 12.7 µM
[3]
  TGI: 10.1 µM
[4]
  TGI: 0.305 µM
[5]
  TGI: 0.0486 µM
[6]
  TGI: 5.26 µM
[7]
  TGI: 20.7 µM
[8]
  TGI: 14.8 µM
[9]
  TGI: 9.71 µM
[10]
  TGI: 10.4 µM
[11]
  TGI: 15.1 µM

## CCCCSc1n/c(=C\c2ccc(N(C)C)cc2)c2nnnn12
[1]
  TGI: > 100 µM
[2]
  TGI: > 100 µM
[3]
  TGI: > 100 µM
[4]
  TGI: > 100 µM
[5]
  TGI: > 100 µM
[6]
  TGI: > 100 µM
[7]
  TGI: > 100 µM
[8]
  TGI: > 100 µM
[9]
  TGI: > 100 µM
[10]
  TGI: > 100 µM
[11]
  TGI: > 100 µM

## N#CC1=CNc2sccc2S1(=O)=O
[1]
  TGI: > 100 µM
[2]
  TGI: > 100 µM
[3]
  TGI: > 100 µM
[4]
  TGI: > 100 µM
[5]
  TGI: > 100 µM
[6]
  TGI: > 100 µM
[7]
  TGI: > 100 µM
[8]
  TGI: > 100 µM
[9]
  TGI: > 100 µM
[10]
  TGI: > 100 µM
[11]
  TGI: > 100 µM

## O=C(/C=C/c1ccc([N+](=O)[O-])cc1)c1nc2ccccc2[nH]1
[1]
  TGI: > 100 µM
[2]
  TGI: > 57.2 µM
[3]
  TGI: > 78.1 µM
[4]
  TGI: > 100 µM
[5]
  TGI: > 100 µM
[6]
  TGI: > 100 µM
[7]
  TGI: > 100 µM
[8]
  TGI: > 100 µM
[9]
  TGI: > 100 µM
[10]
  TGI: > 100 µM
[11]
  TGI: > 84.8 µM

## CC1(C)[C@@H]2C[C@H]1c1cnc(-c3ccccn3)cc1C2[C@@H]1c2cc(-c3ccccn3)ncc2[C@@H]2C[C@H]1C2(C)C (stereo partly specified)
[1]
  TGI: > 100 µM
[2]
  TGI: > 100 µM
[3]
  TGI: > 100 µM
[4]
  TGI: > 100 µM
[5]
  TGI: > 100 µM
[6]
  TGI: > 100 µM
[7]
  TGI: > 100 µM
[8]
  TGI: > 100 µM
[9]
  TGI: > 100 µM
[10]
  TGI: > 100 µM
[11]
  TGI: > 100 µM

## CCCCCCCCCCCCCCCCNc1nc(=O)n(C2CC(O)C(CO)O2)cc1F (stereo unspecified)
[1]
  TGI: 11.9 µM
[2]
  TGI: 43.3 µM
[3]
  TGI: 39.3 µM
[4]
  TGI: 22.8 µM
[5]
  TGI: 72.1 µM
[6]
  TGI: 26.1 µM
[7]
  TGI: 28.3 µM
[8]
  TGI: 18.7 µM
[9]
  TGI: 33.1 µM
[10]
  TGI: 21.7 µM
[11]
  TGI: 25.3 µM

## N#CCCN(CCCN(C(=O)Nc1ccccc1)c1ccccc1)C(=O)Nc1ccccc1
[1]
  TGI: > 100 µM
[2]
  TGI: > 100 µM
[3]
  TGI: > 100 µM
[4]
  TGI: > 100 µM
[5]
  TGI: > 100 µM
[6]
  TGI: > 100 µM
[7]
  TGI: > 100 µM
[8]
  TGI: > 100 µM
[9]
  TGI: > 100 µM
[10]
  TGI: > 100 µM
[11]
  TGI: > 100 µM

## CSCCC(NC(=O)OC(C)(C)C)C(=O)NCCNc1ccc(NCCNC(=O)C(CCSC)NC(=O)OC(C)(C)C)c2c1C(=O)c1ccccc1C2=O (stereo unspecified)
[1]
  TGI: 30.3 µM
[2]
  TGI: 8.54 µM
[3]
  TGI: 15.6 µM
[4]
  TGI: 9.35 µM
[5]
  TGI: 7.03 µM
[6]
  TGI: > 100 µM
[7]
  TGI: 32.9 µM
[8]
  TGI: 7.93 µM
[9]
  TGI: 10.6 µM
[10]
  TGI: 12.8 µM
[11]
  TGI: 12.1 µM

## O=C(NNC(=S)Nc1ccccc1)c1csc(NC(=S)NC2CCCCC2)n1
[1]
  TGI: > 100 µM
[2]
  TGI: > 100 µM
[3]
  TGI: > 100 µM
[4]
  TGI: > 100 µM
[5]
  TGI: > 100 µM
[6]
  TGI: > 100 µM
[7]
  TGI: > 100 µM
[8]
  TGI: > 100 µM
[9]
  TGI: > 100 µM
[10]
  TGI: > 100 µM
[11]
  TGI: > 100 µM

## O=C1[C@@H]2Cc3c([nH]c4ccccc34)C(C3CCCCC3)N2C(=O)[C@@H]2CCCN12 (stereo partly specified)
[1]
  TGI: > 100 µM
[2]
  TGI: 50.2 µM
[3]
  TGI: 51.7 µM
[4]
  TGI: 51.1 µM
[5]
  TGI: > 100 µM
[6]
  TGI: > 100 µM
[7]
  TGI: > 100 µM
[8]
  TGI: > 100 µM
[9]
  TGI: > 100 µM
[10]
  TGI: 75.9 µM
[11]
  TGI: > 100 µM

## CC(C)(C)OC(=O)N1C(OP(=O)(Oc2ccccc2)Oc2ccccc2)=COc2cccnc21
[1]
  TGI: > 100 µM
[2]
  TGI: > 100 µM
[3]
  TGI: > 100 µM
[4]
  TGI: 98.2 µM
[5]
  TGI: > 100 µM
[6]
  TGI: > 100 µM
[7]
  TGI: > 100 µM
[8]
  TGI: > 100 µM
[9]
  TGI: > 100 µM
[10]
  TGI: > 100 µM
[11]
  TGI: 94.2 µM

## O=C1NC(N/N=C\c2ccccc2)=N/C1=C/c1ccc(Cl)cc1
[1]
  TGI: 30 µM
[2]
  TGI: > 100 µM
[3]
  TGI: 39.7 µM
[4]
  TGI: 62.1 µM
[5]
  TGI: > 100 µM
[6]
  TGI: 62.7 µM
[7]
  TGI: 43.4 µM
[8]
  TGI: 62.9 µM
[9]
  TGI: 76.9 µM
[10]
  TGI: > 100 µM
[11]
  TGI: > 100 µM

## CCOC(=O)C1=C(C)NC(=S)NC1c1cccc(O)c1 (stereo unspecified)
[1]
  TGI: > 100 µM
[2]
  TGI: > 90 µM
[3]
  TGI: > 100 µM
[4]
  TGI: > 100 µM
[5]
  TGI: 39.3 µM
[6]
  TGI: > 100 µM
[7]
  TGI: > 100 µM
[8]
  TGI: > 100 µM
[9]
  TGI: > 96.5 µM
[10]
  TGI: > 100 µM
[11]
  TGI: > 100 µM

## OC1OC(c2ccco2)C(F)(F)C(F)(F)C1(F)F (stereo unspecified)
[1]
  TGI: > 100 µM
[2]
  TGI: > 100 µM
[3]
  TGI: > 100 µM
[4]
  TGI: > 100 µM
[5]
  TGI: > 100 µM
[6]
  TGI: > 100 µM
[7]
  TGI: > 100 µM
[8]
  TGI: > 100 µM
[9]
  TGI: > 100 µM
[10]
  TGI: > 100 µM
[11]
  TGI: > 100 µM

## N#CCc1nc(C#N)c(N)o1
[1]
  TGI: > 100 µM
[2]
  TGI: > 100 µM
[3]
  TGI: > 100 µM
[4]
  TGI: > 100 µM
[5]
  TGI: > 100 µM
[6]
  TGI: > 100 µM
[7]
  TGI: > 100 µM
[8]
  TGI: > 100 µM
[9]
  TGI: > 100 µM
[10]
  TGI: > 100 µM
[11]
  TGI: > 100 µM

## O=C(NCCNCCO)N/N=C/c1ccc(Cl)cc1
[1]
  TGI: > 100 µM
[2]
  TGI: > 100 µM
[3]
  TGI: > 100 µM
[4]
  TGI: > 100 µM
[5]
  TGI: > 100 µM
[6]
  TGI: > 100 µM
[7]
  TGI: > 100 µM
[8]
  TGI: > 100 µM
[9]
  TGI: > 100 µM
[10]
  TGI: > 100 µM
[11]
  TGI: > 100 µM
